Measured values taken from publication PMC7822874, “Chemoprotective antimalarials identified through quantitative high-throughput screening of Plasmodium blood and liver stage parasites” (Scientific Reports, 2021).

System: Plasmodium falciparum Dd2 asexual blood stage parasites
Test: microbe, parasite or virus in culture
Design: species or system Plasmodium falciparum Dd2 in human erythrocytes; single determination (one 11-point concentration-response curve)
Conditions: Plasmodium falciparum, DD2, Erythrocyte, 72 h; read-out: AC50

Compound | AC50 [µM]
COc1ccc(NC(=O)Cc2c[nH]c3ncc(-c4cnn(C)c4)cc23)cn1 [NCGC00412250-01] | 12.2
CC(=O)c1c(S)nc(-c2ccccc2)nc1N1CCN(C)CC1 [MLS000519428-01] | 5.96
CC(O)CNCCNCc1c(OCc2ccccc2)ccc2ccccc12 (stereo not drawn) [MLS000324858-01] | 8.41
COc1cc(F)ccc1CNCc1cccnc1N1CCOCC1 [NCGC00425822-01] | 10.6
N#Cc1cc(C#N)c(N2CCN(c3cccc(Cl)n3)CC2)nc1N [MLS000325470-01] | 3.35
CC1=CC(C)(C)Nc2ccc(OC(=O)c3cccnc3)cc21 [MLS000111190-01] | 13.3
CC1CCN(CC2CCCCCN2C(=O)NCc2ccc(F)cc2)CC1 (stereo not drawn) [NCGC00456722-01] | 13.3
COc1ccc(-c2cc(-c3cccc(NC(C)=O)c3)cn3cncc23)cn1 [NCGC00412201-01] | 21.7
Cc1ccccc1NC(=O)c1c(NC(=O)c2ccco2)sc2c1CCC(C(C)(C)C)C2 (stereo not drawn) [NCGC00099842-01] | 13.3
CCn1cc(CN2CCCC(COc3ccccc3C(=O)N3CCCC3)C2)c2ccccc21 (stereo not drawn) [NCGC00427142-01] | 8.41
CCOC(=O)c1ccc(Nc2nc(=O)c(C(C)(C)C)n[nH]2)cc1 [MLS000044326-01] | 13.3
O=c1c2ccccc2sc2nc(C3CCCCC3)n(Cc3ccco3)c(=O)c12 [MLS000084065-01] | 7.5
CN(Cc1ccccc1)Cc1ccccc1OCC(O)CN1CCCCC1 (stereo not drawn) [NCGC00426411-01] | 1.5
COc1ccc(Nc2cc(C)nc3nc(C)nn23)cc1Cl [MLS000116613-01] | 16.8
CN1CCCC(CN(CCc2ccccc2)C(=O)c2cc(C#N)cn2C)C1 (stereo not drawn) [NCGC00443707-01] | 9.44
CCOC(=O)C1(Cc2cccc(Cl)c2)CCCNC1 (stereo not drawn) [NCGC00430131-01] | 8.41
CC(C(=O)N1CCCC1)N1CCN(S(=O)(=O)c2ccc(C(C)(C)C)cc2)CC1 (stereo not drawn) [MLS002156464-01] | 3.35
COC1=CC(=O)C(=C(C)N/N=C(\S)NCCc2ccccc2)C=C1 [MLS001170945-01] | 3.35
COc1ccccc1CN1CCC(CNC(=O)c2cnn(-c3cccc(Cl)c3)c2C2CCN(C(=O)OC(C)(C)C)CC2)CC1 [NCGC00126858-01] | 7.5
O=C(c1ccc(OC2CCN(Cc3c[nH]c4ccccc34)CC2)cc1)N1CCCCC1 [NCGC00429064-01] | 15
COC(=O)C1=C(c2ccc(OC(F)(F)F)cc2)C[C@@H]2CC[C@H]1N2C(=O)NCc1cccc2ccccc12 [MLS002302720-01] | 3.35

Compound | AC50 [µM]
CNC(=O)CCn1ncc2cc(OCc3ccccc3-c3ccccc3OC)ccc21 [NCGC00418023-01] | 15.3
CCN1CCN(Cc2ccc(NC(=O)c3cc(NC(=O)c4cncc(-c5ccc(C#N)cc5)c4)cc(OC)c3)cc2C(F)(F)F)CC1 [MLS000911575-01] | 0.596
COCc1ccc2c(c1)c(OC(C)(C)C(=O)N1CCN(CCO)CC1)nn2Cc1ccccc1 [NCGC00419658-01] | 9.44
CC(C)(C)c1ccc(C(=O)N2CCCC(c3nc(O)c4nnn(Cc5cccc(F)c5)c4n3)C2)cc1 (stereo not drawn) [NCGC00116087-01] | 16.8
COc1ccc(-c2cc(N3CCN(C(=O)c4c[nH]c5ccccc45)CC3)[nH]n2)cc1 [NCGC00436860-01] | 15
CCCn1c(=N)c(C(=O)NC2CCCC2)cc2c(=O)n3cccc(C)c3nc21 [NCGC00100358-01] | 5.96
Fc1ccc(OC2CN(CC3CCCCC3)C2)cc1F [NCGC00476687-01] | 17.2
CCC(=O)Nc1ccc2nnc(-c3ccc(C(=O)Nc4ccc5c(c4)OCCO5)cc3)n2c1 [NCGC00429833-01] | 7.5
Oc1ccc(Cl)cc1CNCC1CCCCC1 [MLS002207458-01] | 4.22
O[C@H]1[C@H](NCC2CCCC2)[C@@H](c2ccccc2)C[C@H]1O [NCGC00395463-01] | 6.11
COc1ccc(-c2ccc3ncc(Nc4cccc(C(F)(F)F)c4)n3n2)cn1 [NCGC00412495-01] | 12.2
O=C(NCCc1c[nH]c2ccccc12)C(=O)Nc1cc2c3c(c1)CC(=O)N3CCC2 [MLS001361834-01] | 10.6
COc1ccc(-c2c3c(nc4sc(C(=O)Nc5ccc(Cl)cc5)c(N)c24)CC(C)(C)CC3=O)cc1 [NCGC00100738-01] | 0.376
CCOC(=O)c1ccc(NC2=CC(c3ccc(F)cc3)N(c3ccc(C(=O)OCC)cc3)C2=O)cc1 (stereo not drawn) [NCGC00102598-01] | 8.41
COc1cc(C(=O)NC2CCN(c3cc(-c4ccccc4)n[nH]3)CC2)cc(OC)c1OC [NCGC00436906-01] | 5.96
Cc1ccc2c(C)c(C(=O)N3CCCC3c3nc(C(C)C)no3)oc2c1C (stereo not drawn) [NCGC00435047-01] | 6.68
C[C@]1(CO)[C@H]2Cc3sc(NC(=O)c4cccc(F)c4)nc3[C@@H](CC(=O)N3CCOCC3)[C@]2(C)CC[C@H]1O [NCGC00395198-01] | 8.41
O=C(N[C@H](c1ccccn1)[C@H]1C[C@H](O)C1)c1cc(=O)n(-c2ccccc2)[nH]1 [NCGC00423856-01] | 9.44
Cc1oc2c(CN3CCCCC3)c(O)ccc2c(=O)c1-c1ccc(Cl)cc1 [MLS001214839-01] | 5.31
CC[C@H]1C[N@@]2CC[C@H]1C[C@@H]2CNCc1ccc(SC)cc1 [NCGC00392466-01] | 4.33
CCc1cccc(NC(c2nnc(-c3ccccc3)o2)c2ccc(F)cc2Cl)c1 (stereo not drawn) [NCGC00129460-01] | 6.68

Compound | AC50 [µM]
COc1ccc(-c2ccccc2NC(=O)C2CCCN(Cc3c(O)cccc3OC)C2)cc1 (stereo not drawn) [NCGC00425458-01] | 2.11
CC1(c2ccccc2)N(Cc2ccccc2)C(=O)OC12CCN(Cc1cccc(O)c1)CC2 (stereo not drawn) [NCGC00415604-01] | 8.41
O=C1NC2(CCN(Cc3ccc(C(F)(F)F)cc3)CC2)COc2ccccc21 [NCGC00477447-01] | 8.41
COc1ccc(CC(=O)NCc2cc(C)cc3c(C)c(C)[nH]c23)c(OC)c1 [NCGC00431513-01] | 8.41
COC(=O)C1=C(c2ccc(OC)c(OC)c2)C[C@@H]2CC[C@H]1N2C(=O)NCc1cccc2ccccc12 [MLS002302726-01] | 3.35
CCNc1nc(NC(C)CC)nc(ON=C(C)C)n1 (stereo not drawn) [MLS000856336-01] | 8.41
COc1ccc(-c2nc3c(c(SCc4ccc(Br)cc4)n2)Cc2c(CO)cnc(C)c2O3)cc1 [NCGC00122580-01] | 0.0668
CCOC(=O)c1c(CN2CCN(CCO)CC2)n(-c2ccccc2)c2cc(Br)c(O)cc12 [MLS000778151-01] | 5.96
Cc1nn(-c2ccc(C(C)(C)C)cc2)c(C)c1[C@@H]1C=C[C@@H](NC(=O)c2ccco2)C1 [NCGC00394638-01] | 12.2
Oc1ccccc1-c1cc(C2=CCOCC2)c2cncn2c1 [NCGC00412161-01] | 9.68
CC1(c2ccccn2)Nc2ccccc2-c2nc3ccccc3n21 (stereo not drawn) [MLS000039430-01] | 5.31
CC(C)c1ccc(CC(=O)N2CCCc3ncc(C(=O)NCCc4c[nH]c5ccccc45)cc32)cc1 [NCGC00420032-01] | 15
C=C(C)COc1ccc(-c2n[nH]cc2Oc2ccccc2OCC)c(O)c1 [MLS000083085-01] | 2.99
CCOC(=O)N1CCc2c(sc3c2c(=O)n(CCc2ccccc2)c(=O)n3Cc2c(F)cccc2Cl)C1 [NCGC00111977-01] | 2.66
O=C1N(c2ccccc2C(F)(F)F)O[C@@]1(c1ccccc1)C1CCCC1 [MLS002206604-01] | 2.99
Cn1cccc1CN1C[C@@H](COc2ccncc2)[C@H](c2ccccn2)C1 [NCGC00468708-01] | 13.3
COc1ccc(CN2CCC(CO)(CCCc3ccccc3)CC2)c(Cl)c1OC [NCGC00426399-01] | 8.41
Cc1ccc(-n2ncc3c(NCc4ccco4)ncnc32)cc1C [MLS000622044-01] | 15
Cc1cccc(CN2CCCN(Cc3ccncc3)C(c3ccccc3)CC(=O)NCC2)c1 (stereo not drawn) [NCGC00467184-01] | 4.22
CC(=O)Oc1c(-c2ccc(NC(=O)CC(C)C)cc2)c(-c2ccc(F)cc2)nn1-c1ccc(F)cc1 [NCGC00473192-01] | 13.3
c1cnc(N2CCOCC2)c(OC2CCNC2)n1 (stereo not drawn) [NCGC00434832-01] | 7.5

Compound | AC50 [µM]
COc1cccc(CN2CCCN(Cc3ccncc3)C(c3ccccc3)CC(=O)NCC2)c1 (stereo not drawn) [NCGC00467185-01] | 7.5
C=CCCC(CN1CCCC1)Oc1ccc(C(=O)N2CCCC2)cn1 (stereo not drawn) [NCGC00435125-01] | 13.3
CC(C)CNC(=O)CN1CN(c2ccccc2)C2(CCN(C(=O)NC3CCCCC3)CC2)C1=O [NCGC00473208-01] | 15
CC(C)Oc1ccc(C(=O)Nc2ccc3oc(-c4ccncc4)nc3c2)cc1 [NCGC00098730-01] | 8.41
O=c1cc(-c2ccccc2)c2ccc3c(c2o1)CN(Cc1cccc(Cl)c1)CO3 [NCGC00116370-01] | 0.841
Cc1ccccc1OCCSc1nc2ccc(NC(=O)c3cccs3)cc2s1 [NCGC00118502-01] | 5.31
COc1cc2c(cc1Oc1ccccc1)NC(=O)C21CCN(c2cnccn2)CC1 [NCGC00416813-01] | 2.17
CCN(CC)CC(O)COc1ccccc1C(=O)CCc1ccccc1 (stereo not drawn) [MLS000107538-01] | 1.5
Cc1cccc(CN2CCN(C(=O)CCl)CC2)c1 [MLS000336096-01] | 13.3
Cc1noc(C)c1[S+](=O)([O-])N1CCCN(Cc2ccncc2)C(c2ccccc2)CC(=O)NCC1 (stereo not drawn) [NCGC00467205-01] | 7.5
COc1ccccc1C(=O)N1CCC2(CC1)OC(=O)N(Cc1ccccc1C#N)C2(C)c1ccccc1 (stereo not drawn) [NCGC00415624-01] | 15
COc1ccc(Oc2nc(-c3ccccn3)nc3ccccc23)cc1 [MLS000769536-01] | 2.99
CCc1ccc2c(c1)cc(CN(/C(S)=N/c1cccc(C)c1)C1CC1)c1nnnn12 [MLS000556704-01] | 3.35
CC(C)(C)c1ccc(-c2noc(-c3ncn4c3COC(c3ccc(F)cc3)C4)n2)cc1 (stereo not drawn) [NCGC00449976-01] | 15
CCc1cc(=O)oc2cc(C)cc(OCC(=O)NCC(O)c3ccccc3)c12 (stereo not drawn) [MLS001158251-01] | 6.68
CCOC(=O)c1nnn(-c2nonc2N)c1-c1ccc(OC)cc1 [MLS000043574-01] | 5.31
CCC(=O)C1=C(c2cccc([N+](=O)[O-])c2)N(C(=O)CC)n2c(nnc2-c2ccccc2)S1 [NCGC00137270-01] | 5.31
CC(C)(C)NC(=O)c1ccc(-c2nnc3ccc(NC(=O)C4CC4)cn23)cc1 [NCGC00429854-01] | 9.44
